The results in this text go back to patent publication US9447051B2, “Diaminopyrimidines and uses thereof” (AbbVie inc., priority 2012, dated 2016).

The test relates to RSV (Group A, Long Strain). The experiment in a line: Antiviral (RSV) assay: cytopathetic effect (CPE) protection assay in HEp-2 cells, MTT readout. Format: cell-based, human respiratory syncytial virus (RSV). The following applies: Table 1, 0.2 MOI RSV, 4 days incubation, protection from CPE. The protocol: HEp-2 cells and RSV (Group A, Long Strain) were obtained from the American Type Culture Collection (Manassas, Va.). A cytopathetic effect (CPE) protection assay was performed to determine the ability of a compound to protect the cells from viral infection and thus the CPE induced by viral infection. 96-well plates were first seeded with 3×10^3 HEp-2 cells per well in Dulbecco's modified Eagle's medium (DMEM) containing 10% fetal bovine serum (FBS). One day after the cells were seeded, they were preincubated with serial dilutions of compounds prepared in 100 μL assay medium (DMEM mixed with F12 medium at a 1:1 ratio, supplemented with 2% FBS and 1 mM sodium pyruvate) for 1 hour at 37° C. 100 μL of assay medium containing 0.2 multiplicity of infection (MOI) of RSV was then added to each well of cells. In addition to wells containing infected cells incubated with compounds, each plate also contained replicates of two kinds of controls: (1) Virus control contained cells infected with 0.2 MOI of RSV in assay medium, (2) Uninfected cell control contained cells incubated with assay medium only. After 4 days of incubation at 37° C., the viability of cells was assessed using MTT (Thiazolyl blue tetrazolium bromide, Sigma). A stock solution of MTT, at a concentration of 4 mg/mL in phosphate-buffered saline, was added to all wells at 25 μL per well. Plates were further incubated for 4 hours, and each well was then treated with 50 μL of a solution containing 20% sodium dodecyl sulfate (SDS) and 0.02 N HCl. After an overnight incubation, the plates were measured on a BioTek® microtiter plate reader at wavelengths of 570 nm and 650 nm. The MTT detection is based on the fact that viable (uninfected) cells can reduce the tetrazolium salts into colored formazan products, which can then be quantitated by spectrometry. […] Compounds were tested to determine both their antiviral and toxicity to determine their therapeutic window. Determination of the EC50 and TD50 of these active compounds were repeated one additional time to confirm the window.

[1] abbreviates: human respiratory syncytial virus, HEp-2, 96 h.

SMILES strings stand for the structures. pEC50: −log10 of the molar value.

The compound `Cc1nc(NCc2ccn[nH]2)nc(NC2CCCCC2)c1C` [Example 14, N^4-cyclohexyl-5,6-dimethyl-N^2-(1H-pyrazol-5-ylmethyl)pyrimidine-2,4-diamine] showed a pEC50 under setting [1] of 6.08. Same read-out and setting: the value for `Cc1nc(N[C@H](C)c2ccccc2)nc(NC2CCCCC2)c1C` [Example 15, N^4-cyclohexyl-5,6-dimethyl-N^2-[(1R)-1-phenylethyl]pyrimidine-2,4-diamine] was under 5.72; that for `CCc1c(C)nc(NCc2ccccn2)nc1Nc1ccc(F)cc1` [Example 89, 5-ethyl-N^4-(4-fluorophenyl)-6-methyl-N^2-(pyridin-2-ylmethyl)pyrimidine-2,4-diamine] was 6.32; that for `Cc1ccc(CNc2nc(C)c(C)c(NC3CCCCC3)n2)nc1` [Example 86, N^4-cyclohexyl-5,6-dimethyl-N^2-[(5-methylpyridin-2-yl)methyl]pyrimidine-2,4-diamine] was 5.82. Under setting [1], `Cc1nc(NCc2ccccn2)nc(Nc2c(C(C)C)cccc2C(C)C)c1C` [Example 84, N^4-(2,6-diisopropylphenyl)-5,6-dimethyl-N^2-(pyridin-2-ylmethyl)pyrimidine-2,4-diamine] had a pEC50 of 7.80.

Consider `Cc1nc(NCc2ccccn2)nc(Nc2ccnn2C)c1C` [Example 74, 5,6-dimethyl-N^4-(1-methyl-1H-pyrazol-5-yl)-N^2-(pyridin-2-ylmethyl)pyrimidine-2,4-diamine], for which the pEC50 under setting [1] is 6.19. The same measure, in the same setting: next, `Cc1cc(F)c(F)cc1Nc1nc(NCc2ccccn2)nc(C)c1C` [Example 73, N^4-(4,5-difluoro-2-methylphenyl)-5,6-dimethyl-N^2-(pyridin-2-ylmethyl)pyrimidine-2,4-diamine]: 7.62; `Cc1nc(NCc2ccccn2)nc(NC2CCc3ccccc32)c1C` (stereo not drawn) [Example 33, N^4-(2,3-dihydro-1H-inden-1-yl)-5,6-dimethyl-N^2-(pyridin-2-ylmethyl)pyrimidine-2,4-diamine]: 6.74. For `Cc1ccnc(CNc2nc(C)c(C)c(NC3CCCCC3)n2)c1` [Example 17, N^4-cyclohexyl-5,6-dimethyl-N^2-[(4-methylpyridin-2-yl)methyl]pyrimidine-2,4-diamine], the pEC50 under setting [1] is 7.47.

On to `Cc1nc(NCc2ccccn2)nc(Nc2cccc(F)c2)c1C` [Example 49, N^4-(3-fluorophenyl)-5,6-dimethyl-N^2-(pyridin-2-ylmethyl)pyrimidine-2,4-diamine], for which, under setting [1], the pEC50 is 6.51.

For the compound `Cc1nc(NCc2ccccn2)nc(Nc2cccc(Cl)c2)c1C` [Example 65, N^4-(3-chlorophenyl)-5,6-dimethyl-N^2-(pyridin-2-ylmethyl)pyrimidine-2,4-diamine], the pEC50 under setting [1] is 7.40. Same read-out and setting: the value for `Cc1ccccc1Nc1nc(NCc2ccccn2)nc(C)c1C` [Example 67, 5,6-dimethyl-N^4-(2-methylphenyl)-N^2-(pyridin-2-ylmethyl)pyrimidine-2,4-diamine] was 8.15. As for `Cc1nc(NCc2ccccn2)nc(NC2CCC(C)(O)CC2)c1C` (stereo not drawn) [Example 38, trans-4-({5,6-dimethyl-2-[(pyridin-2-ylmethyl)amino]pyrimidin-4-yl}amino)-1-methylcyclohexanol], the negative-log EC50 (pEC50) is 5.62. Consider `Cc1nc(NCc2ccccn2)nc(NC2CCNCC2)c1C` [Example 83, 5,6-dimethyl-N^4-(piperidin-4-yl)-N^2-(pyridin-2-ylmethyl)pyrimidine-2,4-diamine], for which the pEC50 under setting [1] was 4.48.

Consider `Cc1nc(NCc2ccccn2)nc(Nc2ccc(Cl)cc2)c1C` [Example 62, N^4-(4-chlorophenyl)-5,6-dimethyl-N^2-(pyridin-2-ylmethyl)pyrimidine-2,4-diamine], for which the pEC50 under setting [1] was 7.03. The same measure, in the same setting: the value for `Cc1ccc(F)cc1Nc1nc(NCc2ccccn2)nc(C)c1C` [Example 71, N^4-(5-fluoro-2-methylphenyl)-5,6-dimethyl-N^2-(pyridin-2-ylmethyl)pyrimidine-2,4-diamine] was 7.40; that for `Cc1nc(NCc2ccccn2)nc(NC2CCC(F)(F)C2)c1C` (stereo not drawn) [Example 78, N^4-(3,3-difluorocyclopentyl)-5,6-dimethyl-N^2-(pyridin-2-ylmethyl)pyrimidine-2,4-diamine] was 6.72; that for `Cc1nc(NCc2ccccn2)nc(Nc2ccc(C(F)(F)F)cc2)c1C` [Example 57, 5,6-dimethyl-N^2-(pyridin-2-ylmethyl)-N^4-[4-(trifluoromethyl)phenyl]pyrimidine-2,4-diamine] was 6.64. Still for that read-out and setting: next, `Cc1nc(NCc2ccccn2)nc(NC2CCCCCC2)c1C` [Example 45, N^4-cycloheptyl-5,6-dimethyl-N^2-(pyridin-2-ylmethyl)pyrimidine-2,4-diamine]: 7.74; `Cc1nc(NCc2ccccn2)nc(NC2CCN(C)CC2)c1C` [Example 81, 5,6-dimethyl-N^4-(1-methylpiperidin-4-yl)-N^2-(pyridin-2-ylmethyl)pyrimidine-2,4-diamine]: 5.89. On the same count and under the same terms, next, `Cc1ccc(O)c(CNc2nc(C)c(C)c(NC3CCCCC3)n2)n1` [Example 7, 2-({[4-(cyclohexylamino)-5,6-dimethylpyrimidin-2-yl]amino}methyl)-6-methylpyridin-3-ol]: under 4.92; `Cc1nc(NCc2ccccn2)nc(Nc2nncs2)c1C` [Example 94, 5,6-dimethyl-N^2-(pyridin-2-ylmethyl)-N^4-(1,3,4-thiadiazol-2-yl)pyrimidine-2,4-diamine]: 5.62. `Cc1nc(NCc2ccc(OC(F)(F)F)cc2)nc(NC2CCCCC2)c1C` [Example 10, N^4-cyclohexyl-5,6-dimethyl-N^2-[4-(trifluoromethoxy)benzyl]pyrimidine-2,4-diamine] showed a negative logarithm of the EC50 (pEC50) under setting [1] of under 5.82. Compound `Cc1nc(NCc2ccccn2)nc(NCC2CCCC2)c1C` [Example 44, N^4-(cyclopentylmethyl)-5,6-dimethyl-N^2-(pyridin-2-ylmethyl)pyrimidine-2,4-diamine] had a pEC50 under setting [1] of 4.62.

In turn, `Cc1nc(NCc2ccccn2)nc(NC2CCC(C)(O)CC2)c1C` (stereo not drawn) [Example 37, cis-4-({5,6-dimethyl-2-[(pyridin-2-ylmethyl)amino]pyrimidin-4-yl}amino)-1-methylcyclohexanol] gave a pEC50 of 6.44.

As for `Cc1nc(NCc2ccccn2)nc(NC2CCCC(F)(F)C2)c1C` (stereo not drawn) [Example 80, N^4-(3,3-difluorocyclohexyl)-5,6-dimethyl-N^2-(pyridin-2-ylmethyl)pyrimidine-2,4-diamine], the pEC50 under setting [1] is 6.72. On the same count and under the same terms, next, `Cc1nc(NCc2ccccn2)nc(Nc2cc(F)cc(F)c2)c1C` [Example 64, N^4-(3,5-difluorophenyl)-5,6-dimethyl-N^2-(pyridin-2-ylmethyl)pyrimidine-2,4-diamine]: 7.40; `Cc1nc(NCc2ccc(C(F)(F)F)cn2)nc(NC2CCCCC2)c1C` [Example 20, N^4-cyclohexyl-5,6-dimethyl-N^2-{[5-(trifluoromethyl)pyridin-2-yl]methyl}pyrimidine-2,4-diamine]: under 5.06; `Cc1cccc(CNc2nc(C)c(C)c(NC3CCCCC3)n2)n1` [Example 19, N^4-cyclohexyl-5,6-dimethyl-N^2-[(6-methylpyridin-2-yl)methyl]pyrimidine-2,4-diamine]: 6.23. On the same count and under the same terms, the value for `Cc1nc(NCc2ccccn2)nc(NC2CCCC(C)C2C)c1C` (stereo not drawn) [Example 41, N^4-(2,3-dimethylcyclohexyl)-5,6-dimethyl-N^2-(pyridin-2-ylmethyl)pyrimidine-2,4-diamine] was 7.40. The same measure, in the same setting: the value for `Cc1cccc(F)c1Nc1nc(NCc2ccccn2)nc(C)c1C` [Example 72, N^4-(2-fluoro-6-methylphenyl)-5,6-dimethyl-N^2-(pyridin-2-ylmethyl)pyrimidine-2,4-diamine] was 7.11; that for `Cc1nc(NCc2ccccn2)nc(NC2CCCCC2O)c1C` (stereo not drawn) [Example 42, 2-({5,6-dimethyl-2-[(pyridin-2-ylmethyl)amino]pyrimidin-4-yl}amino)cyclohexanol] was 6.52; that for `Cc1nc(NCc2ccccn2)nc(Nc2ccc(OC(F)(F)F)cc2)c1C` [Example 56, 5,6-dimethyl-N^2-(pyridin-2-ylmethyl)-N^4-[4-(trifluoromethoxy)phenyl]pyrimidine-2,4-diamine] was 6.40.

Under setting [1], `Cc1cc(Nc2nc(NCc3ccccn3)nc(C)c2C)no1` [Example 96, 5,6-dimethyl-N^4-(5-methyl-1,2-oxazol-3-yl)-N^2-(pyridin-2-ylmethyl)pyrimidine-2,4-diamine] gave a negative-log EC50 (pEC50) of 4.82. Take `Cc1nc(NCc2ccccn2)nc(NC2CC3CCC2C3)c1C` (stereo not drawn) [Example 39, N^4-(bicyclo[2.2.1]hept-2-yl)-5,6-dimethyl-N^2-(pyridin-2-ylmethyl)pyrimidine-2,4-diamine]: the pEC50 under setting [1] is 5.90. On the same count and under the same terms, the value for `Cc1nc(NCc2ccccn2)nc(NC2CCN(C(=O)OC(C)(C)C)CC2)c1C` [Example 82, tert-butyl 4-({5,6-dimethyl-2-[(pyridin-2-ylmethyl)amino]pyrimidin-4-yl}amino)piperidine-1-carboxylate] was 6.27.

One may read the pEC50 as the negative decadic logarithm of the EC50, by convention in mol/L.
